Assay results: patent publication US10059657B2, “Class-and isoform-specific HDAC inhibitors and uses thereof” (priority 2009, dated 2018)

Tests used:
[1] = target: T1, H976Y HDAC4 gain of function mutant (Homo sapiens, UniProt P56524, H976Y); settings: H976Y mutant compared with HDAC4; cited from earlier work
T1 sequence (P56524 1-1084 H976Y): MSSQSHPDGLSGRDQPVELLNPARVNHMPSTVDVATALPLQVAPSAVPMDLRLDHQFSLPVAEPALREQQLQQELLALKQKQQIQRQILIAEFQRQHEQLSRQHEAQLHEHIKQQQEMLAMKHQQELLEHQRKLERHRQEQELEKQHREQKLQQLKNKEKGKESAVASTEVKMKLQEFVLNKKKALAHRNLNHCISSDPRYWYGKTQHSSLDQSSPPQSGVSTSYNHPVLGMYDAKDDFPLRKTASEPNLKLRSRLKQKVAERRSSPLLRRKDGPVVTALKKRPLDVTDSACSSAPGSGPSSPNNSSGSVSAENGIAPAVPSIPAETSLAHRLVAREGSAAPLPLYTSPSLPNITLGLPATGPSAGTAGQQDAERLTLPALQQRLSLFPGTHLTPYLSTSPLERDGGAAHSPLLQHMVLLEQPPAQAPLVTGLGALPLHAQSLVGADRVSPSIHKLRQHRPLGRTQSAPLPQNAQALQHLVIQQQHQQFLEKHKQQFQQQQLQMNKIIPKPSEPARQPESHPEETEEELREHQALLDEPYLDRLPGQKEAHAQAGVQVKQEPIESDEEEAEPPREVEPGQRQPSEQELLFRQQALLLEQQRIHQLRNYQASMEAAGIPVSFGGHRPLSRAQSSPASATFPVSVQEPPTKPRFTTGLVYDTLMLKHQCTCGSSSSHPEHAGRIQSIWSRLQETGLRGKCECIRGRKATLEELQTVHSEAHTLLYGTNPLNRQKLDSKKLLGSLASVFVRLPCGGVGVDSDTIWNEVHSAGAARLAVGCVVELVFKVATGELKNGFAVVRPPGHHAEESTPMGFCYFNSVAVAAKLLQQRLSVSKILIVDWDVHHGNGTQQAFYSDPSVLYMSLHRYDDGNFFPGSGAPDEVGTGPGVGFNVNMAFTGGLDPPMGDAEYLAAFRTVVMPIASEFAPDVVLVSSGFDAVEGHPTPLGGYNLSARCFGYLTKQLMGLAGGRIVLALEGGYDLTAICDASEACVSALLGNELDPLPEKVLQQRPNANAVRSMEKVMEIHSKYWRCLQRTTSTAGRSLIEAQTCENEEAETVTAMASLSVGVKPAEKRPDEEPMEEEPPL

HDAC1-9 = experiment: Biochemical HDAC assay, profiling against HDAC1-9; set-up: species or system human; settings: dose-response, mean of three replicates
Procedure: The inhibitory effect of compounds on HDAC1-9 function was determined in vitro using an optimized homogenous assay performed in 384-well plate format. […] Reactions are performed in assay buffer (50 mM HEPES, 100 mM KCl, 0.001% Tween-20, 0.05% BSA, 200 μM TCEP, pH 7.4) and followed for fluorigenic release of 7-amino-4-methylcoumarin from substrate upon deacetylase and trypsin enzymatic activity. Fluorescence measurements are obtained approximately every five minutes using a multilabel plate reader and plate-stacker (Envision; Perkin-Elmer). Data are analyzed on a plate-by-plate basis for the linear range of fluorescence over time. The first derivative of data obtained from the plate capture corresponding to the mid-linear range is imported into analytical software and annotated with well identity and compound concentration (Spotfire DecisionSite). Replicate experimental data from incubations with inhibitor are normalized to control, solvent-only wells.
Data are analyzed by logistic regression with determination of IC50 and standard deviation (Spotfire DecisionSite and GraphPad Prism). Calculation of Ki is determined using a derivation of the standard formula Ki=[Inhibitor]/((VON;)*(1+S/Km))−[Substrate]/Km)−1. […]

Sirtuin2 = target: T2, Sirtuin2 (Homo sapiens, UniProt Q8IXJ6); experiment: Sirtuin activity assay, Sirtuin2; type: biochemical; settings: highest testing concentration
T2 sequence (Q8IXJ6 1-389): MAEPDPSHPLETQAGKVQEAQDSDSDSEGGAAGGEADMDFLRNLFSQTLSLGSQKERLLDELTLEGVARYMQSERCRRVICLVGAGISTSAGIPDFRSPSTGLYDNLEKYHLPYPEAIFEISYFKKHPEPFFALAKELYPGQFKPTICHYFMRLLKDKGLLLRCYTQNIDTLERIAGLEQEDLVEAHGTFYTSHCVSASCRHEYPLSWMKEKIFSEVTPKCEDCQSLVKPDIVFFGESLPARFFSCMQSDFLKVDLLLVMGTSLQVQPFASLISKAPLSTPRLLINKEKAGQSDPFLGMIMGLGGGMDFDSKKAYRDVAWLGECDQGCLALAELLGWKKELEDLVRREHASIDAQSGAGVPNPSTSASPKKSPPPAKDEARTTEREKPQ
Procedure: (§1) A series of compound dilutions (10 fold higher than final concentrations) are made in 10% DMSO in HDAC assay buffer. 5 μl of each dilution is added to 50 μl of the reaction mixture so that the final concentration of DMSO is 1% in all of reactions.
(§2) All of the enzymatic reactions were conducted in duplicate at room temperature for 3 hours in a 50 μl mixture containing HDAC assay buffer, 5 μg BSA, 100 μM NAD^+, 10 μM HDAC substrate 1, a sirtuin enzyme, and the test compound.
(§3) After enzymatic reactions, 50 μl of 2×HDAC Developer was added to each well and the plate was incubated at room temperature for an additional 20 minutes. Fluorescence intensity was measured at an excitation of 360 nm and an emission of 460 nm using a BioTek Synergy™ 2 microplate reader.
(§4) Sirtuin activity assays were performed in duplicates at each concentration. The fluorescent intensity data were analyzed using the computer software, Graphpad Prism. […] The percent activity in the presence of each compound was calculated according to the following equation: % activity=(F−Fb)/(Ft−Fb), where F=the fluorescent intensity in the presence of the compound, Fb=the fluorescent intensity in the absence of the sirtuin, and Ft=the fluorescent intensity in the absence of the compound. […]
(§5) If the IC50 value is not available, the % inhibition of the compound at the highest testing concentration was calculated.

Sirtuin3 = target: T3, Sirtuin3 (Homo sapiens, UniProt Q9NTG7); experiment: Sirtuin activity assay, Sirtuin3; type: biochemical; settings: highest testing concentration
T3 sequence (Q9NTG7 1-399): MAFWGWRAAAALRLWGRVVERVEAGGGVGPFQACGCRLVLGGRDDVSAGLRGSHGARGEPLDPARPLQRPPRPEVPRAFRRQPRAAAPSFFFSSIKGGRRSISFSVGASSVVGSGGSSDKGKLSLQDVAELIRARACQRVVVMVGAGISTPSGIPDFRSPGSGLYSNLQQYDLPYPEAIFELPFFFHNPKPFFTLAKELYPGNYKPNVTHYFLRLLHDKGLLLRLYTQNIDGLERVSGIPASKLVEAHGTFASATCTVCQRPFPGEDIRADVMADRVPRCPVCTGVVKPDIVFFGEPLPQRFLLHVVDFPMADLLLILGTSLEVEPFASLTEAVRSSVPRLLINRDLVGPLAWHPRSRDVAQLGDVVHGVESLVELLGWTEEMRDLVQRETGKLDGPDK
Procedure: as §1, §2, §3, §4, §5

O=C(/C=C/c1ccc(CN(CCO)CCc2c[nH]c3ccccc23)cc1)NO [LAQ-824]
increased affinity for the H976Y HDAC4 gain of function mutant [1]: 100 fold

O=C(CCCCCCC(=O)Nc1ccccc1)NO [SAHA]
inhibition of HDAC1-9, isoform selectivity profile (HDAC1-9): unexpected selectivity

O=C(/C=C/c1ccc(C(=O)N/N=C/c2ccc(O)c(O)c2O)cc1)NO [pandacostat, (E)-N-hydroxy-3-(4-((E)-2-(2,3,4-trihydroxybenzylidene) hydrazinecarbonyl)phenyl) acrylamide]
inhibition at 100 µM (Sirtuin2): ~62% | inhibition at 100 µM (Sirtuin3): ~57%

trichostatin A [TSA]
inhibition of HDAC1-9, isoform selectivity profile (HDAC1-9): unexpected selectivity
